Assay results reported in patent publication US20100311683A1, “CYTIDINE ANALOGS FOR TREATMENT OF MYELODYSPLASTIC SYNDROMES” (priority 2007, published 2010).
Like-named read-outs stand apart in the source and are kept apart here.

Experiments:
[1] = system: patients with hematologic disorders, predominantly low-risk MDS; experiment: AVIDA longitudinal registry of patients receiving azacitidine (transfusion independence); assay type: in vivo, human
From the text: The study assessed usage patterns and transfusion requirements in patients enrolled in AVIDA, a longitudinal registry of patients with hematologic disorders receiving azacitidine, to further the understanding of current azacitidine treatment patterns in the community, identify common care procedures and concomitant treatments, and document transfusion requirements. Baseline demographics and disease characteristics were obtained at enrollment.

MDS patients [2] = settings: pivotal CALGB study, approved Aza dose regimen subcutaneously; cited from earlier work
[3] = system: patients ≥60 years with AML
MDS patients [4] = system: MDS patients
[5] = system: patients older than 55 years of age with AML; settings: patients older than 55 years with AML, prior retrospective analysis; cited from earlier work
[6] = system: high-risk MDS patients with -7/del(7q); experiment: AZA-001 subgroup analysis: patients with -7/del(7q); assay type: in vivo, human

## Nc1ncn([C@@H]2O[C@H](CO)[C@@H](O)[C@H]2O)c(=O)n1 [azacitidine, 4-amino-1-β-D-ribofuranosyl-1,3,5-triazin-2(1H)-one]
[1]; 16/43, at least 2 cycles of azacitidine
  patients with a history of transfusions who achieved transfusion-independence: 37%
[1]; 22/27, at least 2 cycles of azacitidine
  patients without a history of transfusion who achieved transfusion independence: 81%
[1]; patients with a history of transfusions
  median cycles to transfusion independence: 6 cycles
[1]; patients without a history of transfusion
  median cycles to transfusion independence: 4 cycles
MDS patients [2]
  baseline RBC transfusion dependent patients who achieved transfusion independence: 45%
[3]; 5/8
  fatigue: 63%
  mild injection site skin reaction: 63%
[3]; all patients
  mean overall survival time from diagnosis: 180 days
[3]; azacitidine 100 mg/m2 SC 5 days every 28 days, 6/8 patients
  overall response rate: 75%
[3]; in vivo
  mean number of days hospitalized during therapy: 18 days
  treatment related deaths: No treatment related deaths were observed
[3]; n=2 of 8
  complete response (CR): 25%
[3]; n=4 of 8
  partial response (PR): 50%
[3]; responders
  mean overall survival time: 200 days
[3]; two of the six responders
  responders who became independent of RBC transfusion: 33%
MDS patients [4]; AZA 5 (75 mg/m2/d x5d)
  FAB low-risk patients RBC transfusion independent at baseline who remained independent during the study: 64%
  RBC transfusion-dependent patients who achieved and retained independence at the end of cycle 6: 63%
  evaluable patients RBC transfusion independent at baseline who remained independent during the study: 68%
  mean duration of RBC transfusion independence: 109 days
  onset of HI within the first 3 cycles: 96%
  patients with at least 1 treatment-emergent AE that led to study discontinuation: 14%
  patients with bilineage HI: 10%
  patients with serious AEs: 30%
MDS patients [4]; AZA 5 (75 mg/m2/d x5d), N=49
  Any HI (major and minor): 27 (55) [40, 69] %
  Erythroid Major HI (IWG 2000), evaluable patients: 18 (37) [23, 52] %
  Erythroid Minor HI: 1 (2) [0.1, 11] %
  Neutrophil Major HI: 4 (8) [40, 100] %
  Neutrophil Minor HI: 2 (4) [0.5, 14] %
  Platelet Major HI: 9 (18) [9, 32] %
  Platelet Minor HI: 2 (4) [0.5, 14] %
MDS patients [4]; AZA 5 (75 mg/m2/d x5d), N=50
  Grade 3/4 AE: Anemia: 5 (10) %
  Grade 3/4 AE: Candida Sepsis: 1 (2) %
  Grade 3/4 AE: Cellulitis: 1 (2) %
  Grade 3/4 AE: Epistaxis: 0%
  Grade 3/4 AE: Febrile neutropenia: 1 (2) %
  Grade 3/4 AE: GI hemorrhage: 0%
  Grade 3/4 AE: Hematologic Disorders: 17 (34) %
  Grade 3/4 AE: Hemorrhagic Events: 1 (2) %
  Grade 3/4 AE: Hemorrhagic anemia: 1 n (%)
  Grade 3/4 AE: Infections: 5 (10) %
  Grade 3/4 AE: Leukopenia: 4 (8) %
  Grade 3/4 AE: Neutropenia: 11 (22) %
  Grade 3/4 AE: Pneumonia: 1 (2) %
  Grade 3/4 AE: Rectal hemorrhage: 0%
  Grade 3/4 AE: Thrombocytopenia: 6 (12) %
  Grade 3/4 AE: Urinary tract infection: 0%
  Grade 3/4 AE: ≥1 Adverse Event: 29 (58) %
MDS patients [4]; AZA 5 (75 mg/m2/d x5d), n=28
  onset of IWG-defined HI in Cycle 1: 15 (54) %
  onset of IWG-defined HI in Cycle 2: 10 (36) %
  onset of IWG-defined HI in Cycle 3: 2 (7) %
  onset of IWG-defined HI in Cycle 4: 1 (4) %
  onset of IWG-defined HI in Cycle 5: 0%
  onset of IWG-defined HI in Cycle 6: 0%
MDS patients [4]; AZA 5-2-2 (75 mg/m2/d)
  FAB low-risk patients RBC transfusion independent at baseline who remained independent during the study: 75%
  RBC transfusion-dependent patients who achieved and retained independence at the end of cycle 6: 100%
  evaluable patients RBC transfusion independent at baseline who remained independent during the study: 67%
  mean duration of RBC transfusion independence: 135 days
  onset of HI within the first 3 cycles: 87%
  patients with at least 1 treatment-emergent AE that led to study discontinuation: 18%
  patients with bilineage HI: 11%
  patients with serious AEs: 54%
MDS patients [4]; AZA 5-2-2 (75 mg/m2/d), N=46
  Any HI (major and minor): 20 (44) [29, 59] %
  Erythroid Major HI (IWG 2000), evaluable patients: 15 (33) [20, 48] %
  Erythroid Minor HI: 1 (2) [0.1, 12] %
  Neutrophil Major HI: 3 (7) [29, 100] %
  Neutrophil Minor HI: 0 [0, 8] %
  Platelet Major HI: 10 (22) [11, 36] %
  Platelet Minor HI: 0 [0, 8] %
MDS patients [4]; AZA 5-2-2 (75 mg/m2/d), N=50
  Grade 3/4 AE: Anemia: 12 (24) %
  Grade 3/4 AE: Candida Sepsis: 0%
  Grade 3/4 AE: Cellulitis: 2 (4) %
  Grade 3/4 AE: Epistaxis: 1 (2) %
  Grade 3/4 AE: Febrile neutropenia: 4 (8) %
  Grade 3/4 AE: GI hemorrhage: 1 (2) %
  Grade 3/4 AE: Hematologic Disorders: 33 (66) %
  Grade 3/4 AE: Hemorrhagic Events: 4 (8) %
  Grade 3/4 AE: Hemorrhagic anemia: 0 n (%)
  Grade 3/4 AE: Infections: 11 (22) %
  Grade 3/4 AE: Leukopenia: 7 (14) %
  Grade 3/4 AE: Neutropenia: 21 (42) %
  Grade 3/4 AE: Pneumonia: 0%
  Grade 3/4 AE: Rectal hemorrhage: 0%
  Grade 3/4 AE: Thrombocytopenia: 13 (26) %
  Grade 3/4 AE: Urinary tract infection: 0%
  Grade 3/4 AE: ≥1 Adverse Event: 42 (84) %
MDS patients [4]; AZA 5-2-2 (75 mg/m2/d), n=22
  onset of IWG-defined HI in Cycle 1: 9 (41) %
  onset of IWG-defined HI in Cycle 2: 9 (41) %
  onset of IWG-defined HI in Cycle 3: 1 (5) %
  onset of IWG-defined HI in Cycle 4: 0%
  onset of IWG-defined HI in Cycle 5: 2 (9) %
  onset of IWG-defined HI in Cycle 6: 1 (5) %
MDS patients [4]; AZA 5-2-5 (50 mg/m2/d)
  FAB low-risk patients RBC transfusion independent at baseline who remained independent during the study: 80%
  RBC transfusion-dependent patients who achieved and retained independence at the end of cycle 6: 92%
  evaluable patients RBC transfusion independent at baseline who remained independent during the study: 79%
  mean duration of RBC transfusion independence: 138 days
  onset of HI within the first 3 cycles: 88%
  patients with at least 1 treatment-emergent AE that led to study discontinuation: 20%
  patients with bilineage HI: 7%
  patients with serious AEs: 40%
MDS patients [4]; AZA 5-2-5 (50 mg/m2/d), N=44
  Any HI (major and minor): 23 (52) [37, 68] %
  Erythroid Major HI (IWG 2000), evaluable patients: 17 (39) [24, 55] %
  Erythroid Minor HI: 1 (2) [0.1, 12] %
  Neutrophil Major HI: 4 (9) [40, 100] %
  Neutrophil Minor HI: 0 [0, 8] %
  Platelet Major HI: 8 (18) [8, 33] %
  Platelet Minor HI: 0 [0, 8] %
MDS patients [4]; AZA 5-2-5 (50 mg/m2/d), N=48
  Grade 3/4 AE: Anemia: 7 (15) %
  Grade 3/4 AE: Candida Sepsis: 0%
  Grade 3/4 AE: Cellulitis: 1 (2) %
  Grade 3/4 AE: Epistaxis: 0%
  Grade 3/4 AE: Febrile neutropenia: 4 (8) %
  Grade 3/4 AE: GI hemorrhage: 1 (2) %
  Grade 3/4 AE: Hematologic Disorders: 24 (50) %
  Grade 3/4 AE: Hemorrhagic Events: 3 (6) %
  Grade 3/4 AE: Hemorrhagic anemia: 0 n (%)
  Grade 3/4 AE: Infections: 14 (29) %
  Grade 3/4 AE: Leukopenia: 4 (8) %
  Grade 3/4 AE: Neutropenia: 15 (31) %
  Grade 3/4 AE: Pneumonia: 4 (8) %
  Grade 3/4 AE: Rectal hemorrhage: 1 (2) %
  Grade 3/4 AE: Thrombocytopenia: 7 (15) %
  Grade 3/4 AE: Urinary tract infection: 3 (6) %
  Grade 3/4 AE: ≥1 Adverse Event: 37 (77) %
MDS patients [4]; AZA 5-2-5 (50 mg/m2/d), n=24
  onset of IWG-defined HI in Cycle 1: 6 (25) %
  onset of IWG-defined HI in Cycle 2: 8 (33) %
  onset of IWG-defined HI in Cycle 3: 7 (29) %
  onset of IWG-defined HI in Cycle 4: 2 (8) %
  onset of IWG-defined HI in Cycle 6: 0%
MDS patients [4]; all 3 regimens
  hematologic AE: anemia: 29%
  hematologic AE: leukopenia: 18%
  hematologic AE: neutropenia: 38%
  hematologic AE: thrombocytopenia: 24%
  nonhematologic AE: constipation: 51%
  nonhematologic AE: fatigue: 93%
  nonhematologic AE: injection site erythema: 55%
  nonhematologic AE: injection site pain: 54%
  nonhematologic AE: nausea: 55%
MDS patients [4]; all 3 regimens, N=148
  Grade 3/4 AE: Anemia: 24 (16) %
  Grade 3/4 AE: Candida Sepsis: 1 (1) %
  Grade 3/4 AE: Cellulitis: 4 (3) %
  Grade 3/4 AE: Epistaxis: 1 (1) %
  Grade 3/4 AE: Febrile neutropenia: 9 (6) %
  Grade 3/4 AE: GI hemorrhage: 2 (1) %
  Grade 3/4 AE: Hematologic Disorders: 74 (50) %
  Grade 3/4 AE: Hemorrhagic Events: 8 (5) %
  Grade 3/4 AE: Infections: 30 (20) %
  Grade 3/4 AE: Leukopenia: 15 (10) %
  Grade 3/4 AE: Neutropenia: 47 (32) %
  Grade 3/4 AE: Pneumonia: 5 (3) %
  Grade 3/4 AE: Rectal hemorrhage: 1 (1) %
  Grade 3/4 AE: Thrombocytopenia: 26 (18) %
  Grade 3/4 AE: Urinary tract infection: 3 (2) %
  Grade 3/4 AE: ≥1 Adverse Event: 108 (73) %
MDS patients [4]; all 3 regimens, n=12
  serious AEs involving GI disorders: 8%
MDS patients [4]; all 3 regimens, n=19
  serious AEs involving blood or lymphatic system disorders: 13%
MDS patients [4]; all 3 regimens, n=31
  serious AEs involving infections: 21%
MDS patients [4]; each alternative dosing regimen group
  patients platelet transfusion independent at baseline who remained independent: ≥ 92%
MDS patients [4]; each of the 3 alternative treatment groups (2 patients each)
  patients with trilineage HI: 4%
MDS patients [4]; five patients (AZA 5-2-2 n=2, AZA 5 n=3)
  platelet transfusion independence in baseline-dependent patients: all of whom achieved transfusion independence
MDS patients [4]; three alternative dosing regimens
  tolerability: generally well tolerated
[5]
  overall response rate: 60%
[6]; -7/del(7q) alone
  IWG 2000 response rate (CR+PR): 64%
[6]; -7/del(7q) as part of complex karyotype
  IWG 2000 response rate (CR+PR): 21%
[6]; -7/del(7q) patients
  CR: 8/30, 27%
  CR + PR: 13/30, 43%
  HI-E: 13/26, 50%
  HI-P: 10/20, 50%
[6]; RBC-dependent -7/del(7q) patients at BL
  RBC TI (transfusion independence): 12/21, 57%
[6]; patients with -7/del(7q)
  OS advantage at 2 years vs CCR: 4 fold
  hazard ratio for overall survival, azacitidine vs CCR: 0.33
  improvement in OS over CCR: 3 fold
  median Kaplan Meier difference in OS, AZA vs CCR: 8.4 months
  patients alive at 2 years: 33%
  reduced risk of death vs CCR: 67%
  tolerability: generally well tolerated
[6]; patients with -7/del(7q), azacitidine n=30
  median Kaplan-Meier overall survival: 13.1 months
